Measured values reported in patent US7754716B2, “Combination comprising a vasculostatic compound and an alkylating agent for the treatment of a tumor” (Novartis AG, priority 2002, dated 2010).

System: recurrent glioblastoma
Experiment: Treatment of a patient with recurrent glioblastoma with temozolomide plus PTK787
Format: in vivo, human
Details: one patient with histologically confirmed recurrent glioblastoma; temozolomide 50 mg/m^2 daily for 5 consecutive days every 28 days in addition to continuous daily dose of 1000 mg PTK787; observed during the third cycle
Protocol: Suitable clinical studies are, for example, randomized, double-blind, placebo-controlled, parallel studies in patients with recurrent glioblastoma, but also dose escalation studies. […] Tumor assessment in the form of dynamic contrast-enhanced MRI is also a suitable approach to determine the effect of the COMBINATION OF THE INVENTION. In a suitable study design, patients are receiving, for example, temozolomide in a dosage of 50 to 250 mg/m^2 daily, for example, 200 mg/m^2 daily, for 5 consecutive days every 28 days or placebo in addition to a continuous daily dose of 500 to 2000 mg of a compound of formula I, e.g., 500, 1000, 1500 or 2000 mg of PTK787 or placebo.

SMILES: Clc1ccc(Nc2nnc(Cc3ccncc3)c3ccccc23)cc1 [PTK787]
- disease status observed under treatment: stable disease
